This is an account of results in patent US10213433B2 (AbbVie Inc., priority 2010, dated 2019).

Sequence of Bcl-2 protein (P10415 whole entry): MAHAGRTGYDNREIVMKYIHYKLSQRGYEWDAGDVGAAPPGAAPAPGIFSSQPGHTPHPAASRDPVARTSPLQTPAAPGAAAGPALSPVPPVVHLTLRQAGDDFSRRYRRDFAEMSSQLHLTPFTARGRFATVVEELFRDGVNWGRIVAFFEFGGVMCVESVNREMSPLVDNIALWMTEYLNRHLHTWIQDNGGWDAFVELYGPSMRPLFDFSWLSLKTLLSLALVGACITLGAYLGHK

This assay has as its target Bcl-2 protein (Homo sapiens (Human), UniProt P10415). The experiment in a line: Bcl-2 binding TR-FRET (Time-Resolved Fluorescence-Resonance-Energy-Transfer) assay. Particulars: inhibition constant for binding to Bcl-2 protein. The source says:
The smaller the Ki value, the greater is the binding affinity.
Consider `CC1(C)CCC(CN2CCN(c3ccc(C(=O)NS(=O)(=O)c4cnc(OCC5(F)CCN(CC(F)F)CC5)c(Cl)c4)c(Oc4cnc5[nH]ccc5c4)c3)CC2)=C(c2ccc(Cl)cc2)C1` [Compound 285, N-[(5-chloro-6-{[1-(2,2-difluoroethyl)-4-fluoropiperidin-4-yl]methoxy}pyridin-3-yl)sulfonyl]-4-(4-{[2-(4-chlorophenyl)-4,4-dimethylcyclohex-1-en-1-yl]methyl}piperazin-1-yl)-2-(1H-pyrrolo[2,3-b]pyridin-5-yloxy)benzamide], for which the Ki (commonly the equilibrium dissociation constant of an inhibitor or competing ligand from its target) is < 10 pM.

Regarding `CC1CN(c2ccc(C(=O)NS(=O)(=O)c3ccc(NCC4CCOCC4)c([N+](=O)[O-])c3)c(Oc3cnc4[nH]ccc4c3)c2)CCN1CC1=C(c2ccc(Cl)cc2)CC(C)(C)CC1` (stereo not drawn) [Compound 290, 4-(4-{[2-(4-chlorophenyl)-4,4-dimethylcyclohex-1-en-1-yl]methyl}-3-methylpiperazin-1-yl)-N-({3-nitro-4-[(tetrahydro-2H-pyran-4-ylmethyl)amino]phenyl}sulfonyl)-2-(1H-pyrrolo[2,3-b]pyridin-5-yloxy)benzamide], the inhibition constant (Ki) is < 10 pM.

`CC1(C)CCC(CN2CCN(c3ccc(C(=O)NS(=O)(=O)c4ccc(NCCCNC5CC5)c([N+](=O)[O-])c4)c(Oc4cnc5[nH]ccc5c4)c3)CC2)=C(c2ccc(Cl)cc2)C1` [Compound 291, 4-(4-{[2-(4-chlorophenyl)-4,4-dimethylcyclohex-1-en-1-yl]methyl}piperazin-1-yl)-N-[(4-{[3-(cyclopropylamino)propyl]amino}-3-nitrophenyl)sulfonyl]-2-(1H-pyrrolo[2,3-b]pyridin-5-yloxy)benzamide]: the Ki is < 10 pM.

In the case of `CN(C)CC(=O)N1CCC(COc2ccc(S(=O)(=O)NC(=O)c3ccc(N4CCN(CC5=C(c6ccc(Cl)cc6)CC(C)(C)CC5)CC4)cc3Oc3cnc4[nH]ccc4c3)cc2Cl)CC1` [Compound 295, N-[(3-chloro-4-{[1-(N,N-dimethylglycyl)piperidin-4-yl]methoxy}phenyl)sulfonyl]-4-(4-{[2-(4-chlorophenyl)-4,4-dimethylcyclohex-1-en-1-yl]methyl}piperazin-1-yl)-2-(1H-pyrrolo[2,3-b]pyridin-5-yloxy)benzamide], the Ki was < 10 pM.

For the compound `COC(=O)N1CCOC(CNc2ccc(S(=O)(=O)NC(=O)c3ccc(N4CCN(CC5=C(c6ccc(Cl)cc6)CC(C)(C)CC5)CC4)cc3Oc3cnc4[nH]ccc4c3)cc2[N+](=O)[O-])C1` (stereo not drawn) [Compound 317, methyl 2-{[(4-{[4-(4-{[2-(4-chlorophenyl)-4,4-dimethylcyclohex-1-en-1-yl]methyl}piperazin-1-yl)-2-(1H-pyrrolo[2,3-b]pyridin-5-yloxy)benzoyl]sulfamoyl}-2-nitrophenyl)amino]methyl}morpholine-4-carboxylate], the Ki was < 10 pM.

As to `CCN(C)C(=O)N1CCOC(CNc2ccc(S(=O)(=O)NC(=O)c3ccc(N4CCN(CC5=C(c6ccc(Cl)cc6)CC(C)(C)CC5)CC4)cc3Oc3cnc4[nH]ccc4c3)cc2[N+](=O)[O-])C1` (stereo not drawn) [Compound 318, 2-{[(4-{[4-(4-{[2-(4-chlorophenyl)-4,4-dimethylcyclohex-1-en-1-yl]methyl}piperazin-1-yl)-2-(1H-pyrrolo[2,3-b]pyridin-5-yloxy)benzoyl]sulfamoyl}-2-nitrophenyl)amino]methyl}-N-ethyl-N-methylmorpholine-4-carboxamide], the Ki was < 10 pM.

Turning to `CC1(C)CCC(CN2CCN(c3ccc(C(=O)NS(=O)(=O)c4ccc(NCC5CN(S(C)(=O)=O)CCO5)c([N+](=O)[O-])c4)c(Oc4cnc5[nH]ccc5c4)c3)CC2)=C(c2ccc(Cl)cc2)C1` (stereo not drawn) [Compound 319, 4-(4-{[2-(4-chlorophenyl)-4,4-dimethylcyclohex-1-en-1-yl]methyl}piperazin-1-yl)-N-{[4-({[4-(methylsulfonyl)morpholin-2-yl]methyl}amino)-3-nitrophenyl]sulfonyl}-2-(1H-pyrrolo[2,3-b]pyridin-5-yloxy)benzamide], the inhibition constant Ki was < 10 pM.

As to `CC1(C)CCC(CN2CCN(c3ccc(C(=O)NS(=O)(=O)c4ccc(NCCCN(C5CCC5)C5CC5)c([N+](=O)[O-])c4)c(Oc4cnc5[nH]ccc5c4)c3)CC2)=C(c2ccc(Cl)cc2)C1` [Compound 320, 4-(4-{[2-(4-chlorophenyl)-4,4-dimethylcyclohex-1-en-1-yl]methyl}piperazin-1-yl)-N-{[4-({3-[cyclobutyl(cyclopropyl)amino]propyl}amino)-3-nitrophenyl]sulfonyl}-2-(1H-pyrrolo[2,3-b]pyridin-5-yloxy)benzamide], the Ki was < 10 pM.

`O=C(NS(=O)(=O)c1ccc(NCC2CCOCC2)c([N+](=O)[O-])c1)c1ccc(N2CCN(CC3=C(c4ccc(Cl)cc4)CCC(F)(F)C3)CC2)cc1Oc1cnc2[nH]ccc2c1` [Compound 321, 4-(4-{[2-(4-chlorophenyl)-5,5-difluorocyclohex-1-en-1-yl]methyl}piperazin-1-yl)-N-({3-nitro-4-[(tetrahydro-2H-pyran-4-ylmethyl)amino]phenyl}sulfonyl)-2-(1H-pyrrolo[2,3-b]pyridin-5-yloxy)benzamide]: the inhibition constant (Ki) was < 10 pM.

As for `O=C(NS(=O)(=O)c1ccc(OCC2(F)CCOCC2)c(Cl)c1)c1ccc(N2CCN(CC3=C(c4ccc(Cl)cc4)CCC4(CCN(C5COC5)CC4)C3)CC2)cc1Oc1cnc2[nH]ccc2c1` [Compound 325, N-({3-chloro-4-[(4-fluorotetrahydro-2H-pyran-4-yl)methoxy]phenyl}sulfonyl)-4-(4-{[9-(4-chlorophenyl)-3-(oxetan-3-yl)-3-azaspiro[5.5]undec-8-en-8-yl]methyl}piperazin-1-yl)-2-(1H-pyrrolo[2,3-b]pyridin-5-yloxy)benzamide], the inhibition constant (Ki) is < 10 pM.

As for `CC1(C)CCC(CN2CCN(c3ccc(C(=O)NS(=O)(=O)c4ccc(NC[C@@H]5CN(C6CC6)CCO5)c([N+](=O)[O-])c4)c(Oc4cnc5[nH]ccc5c4)c3)CC2)=C(c2ccc(Cl)cc2)C1` [Compound 326, 4-(4-{[2-(4-chlorophenyl)-4,4-dimethylcyclohex-1-en-1-yl]methyl}piperazin-1-yl)-N-{[4-({[(2R)-4-cyclopropylmorpholin-2-yl]methyl}amino)-3-nitrophenyl]sulfonyl}-2-(1H-pyrrolo[2,3-b]pyridin-5-yloxy)benzamide], the Ki is < 10 pM.

`CC1(C)CCC(CN2CCN(c3ccc(C(=O)NS(=O)(=O)c4ccc(NC[C@H]5CN(C6CC6)CCO5)c([N+](=O)[O-])c4)c(Oc4cnc5[nH]ccc5c4)c3)CC2)=C(c2ccc(Cl)cc2)C1` [Compound 327, 4-(4-{[2-(4-chlorophenyl)-4,4-dimethylcyclohex-1-en-1-yl]methyl}piperazin-1-yl)-N-{[4-({[(2S)-4-cyclopropylmorpholin-2-yl]methyl}amino)-3-nitrophenyl]sulfonyl}-2-(1H-pyrrolo[2,3-b]pyridin-5-yloxy)benzamide]: the Ki is < 10 pM.

Consider `O=C(NS(=O)(=O)c1ccc(NCC2CCOCC2)c([N+](=O)[O-])c1)c1ccc(N2CCN(CC3=C(c4ccc(Cl)cc4)CC4(CC3)CC4)CC2)cc1Oc1cnc2[nH]ccc2c1` [Compound 328, 4-(4-{[5-(4-chlorophenyl)spiro[2.5]oct-5-en-6-yl]methyl}piperazin-1-yl)-N-({3-nitro-4-[(tetrahydro-2H-pyran-4-ylmethyl)amino]phenyl}sulfonyl)-2-(1H-pyrrolo[2,3-b]pyridin-5-yloxy)benzamide], for which the Ki was < 10 pM.

For `O=C(NS(=O)(=O)c1ccc(NCC2CN(C3CC3)CCO2)c([N+](=O)[O-])c1)c1ccc(N2CCN(CC3=C(c4ccc(Cl)cc4)CC4(CC3)CC4)CC2)cc1Oc1cnc2[nH]ccc2c1` (stereo not drawn) [Compound 330, 4-(4-{[5-(4-chlorophenyl)spiro[2.5]oct-5-en-6-yl]methyl}piperazin-1-yl)-N-[(4-{[(4-cyclopropylmorpholin-2-yl)methyl]amino}-3-nitrophenyl)sulfonyl]-2-(1H-pyrrolo[2,3-b]pyridin-5-yloxy)benzamide], the inhibition constant Ki was < 10 pM.

Turning to `CC1(C)CCC(CN2CCN(c3ccc(C(=O)NS(=O)(=O)c4ccc(NC5CCC(N(CCC#N)C6CC6)CC5)c([N+](=O)[O-])c4)c(Oc4cnc5[nH]ccc5c4)c3)CC2)=C(c2ccc(Cl)cc2)C1` (stereo not drawn) [Compound 340, 4-(4-{[2-(4-chlorophenyl)-4,4-dimethylcyclohex-1-en-1-yl]methyl}piperazin-1-yl)-N-{[4-({4-[(2-cyanoethyl)(cyclopropyl)amino]cyclohexyl}amino)-3-nitrophenyl]sulfonyl}-2-(1H-pyrrolo[2,3-b]pyridin-5-yloxy)benzamide], the inhibition constant Ki is < 10 pM.

In the case of `C[C@]1(O)CC[C@@H](COc2ncc(S(=O)(=O)NC(=O)c3ccc(N4CCN(CC5=C(c6ccc(Cl)cc6)CC6(CC5)CC6)CC4)cc3Oc3cnc4[nH]ccc4c3)cc2Cl)CC1` [Compound 341, N-({5-chloro-6-[(trans-4-hydroxy-4-methylcyclohexyl)methoxy]pyridin-3-yl}sulfonyl)-4-(4-{[5-(4-chlorophenyl)spiro[2.5]oct-5-en-6-yl]methyl}piperazin-1-yl)-2-(1H-pyrrolo[2,3-b]pyridin-5-yloxy)benzamide], the inhibition constant Ki was < 10 pM.

Regarding `CC1(C)CCC(CN2CCN(c3ccc(C(=O)NS(=O)(=O)c4cnc(OCC5CCc6nccn6C5)c(Cl)c4)c(Oc4cnc5[nH]ccc5c4)c3)CC2)=C(c2ccc(Cl)cc2)C1` (stereo not drawn) [Compound 342, 4-(4-{[2-(4-chlorophenyl)-4,4-dimethylcyclohex-1-en-1-yl]methyl}piperazin-1-yl)-N-{[5-chloro-6-(5,6,7,8-tetrahydroimidazo[1,2-a]pyridin-6-ylmethoxy)pyridin-3-yl]sulfonyl}-2-(1H-pyrrolo[2,3-b]pyridin-5-yloxy)benzamide], the inhibition constant Ki was < 10 pM.

Regarding `O=C(NS(=O)(=O)c1cnc(OCC2(F)CCN(C3COC3)CC2)c(Cl)c1)c1ccc(N2CCN(CC3=C(c4ccc(Cl)cc4)CC4(CC3)CC4)CC2)cc1Oc1cnc2[nH]ccc2c1` [Compound 345, N-[(5-chloro-6-{[4-fluoro-1-(oxetan-3-yl)piperidin-4-yl]methoxy}pyridin-3-yl)sulfonyl]-4-(4-{[5-(4-chlorophenyl)spiro[2.5]oct-5-en-6-yl]methyl}piperazin-1-yl)-2-(1H-pyrrolo[2,3-b]pyridin-5-yloxy)benzamide], the inhibition constant (Ki) was < 10 pM.
